Assays:
Type in all cases: physicochemical
[1] = Stability test under high temperature conditions (60° C., 5 days), related substance; details: for changes of the related substances in 5 days: high temperature of 60° C.; for Day 0: Related substance / Day 5: Related substance / Related material changes: 60° C.; for Day 0: Related substance: day 0, average of 5 groups; for Day 5: Related substance: day 5, average of 5 groups; for Related material changes: day 5 versus day 0
Procedure: Stability test of the crystalline form I of (R)-4-hydroxy-2-oxo-1-pyrrolidineacetamideunder high temperature conditions. The crystalline form I of (R)-4-hydroxy-2-oxo-1-pyrrolidinylacetamide prepared in Examples 1 and 3-7 was placed in a flat weighing bottle and spread into thin layers of <5 mm thick, sealed in a clean container respectively and placed at 60° C. for 5 days; samples were taken and detected on day 0 and day 5, respectively.

Solubility in water = test: Solubility in water
[2] = Angle of repose by injection method (fixed funnel method); details: average of 5 groups
Procedure: (§1) In this test, the angle of repose of the crystalline form I of (R)-4-hydroxy-2-oxo-1-pyrrolidineacetamide prepared by the methods of Examples 1 and 3-7 was measured by an injection method (fixed funnel method). The samples to be tested were poured into the funnel, and they were gently and evenly dropped into the center of the disc to form a cone, when the materials fell freely from the oblique edge of the powder along the edge of the disc, the feedings were stopped, and the angles of repose were determined by the protractor; the sample traits and the clarity of the solution were examined, each example was tested for 5 groups and the average was obtained, the results are as follows: […]

Clarity of solution = details: average of 5 groups
Procedure: as §1

| Compound | changes of the related substances in 5 days [1] | changes of the related substances in 5 days ([1]; listed as crystalline form of (R)-4-hydroxy-2-oxo-1-pyrrolidineacetamide) | solubility (Solubility in water) | Day 0: Related substance [1] | Day 5: Related substance [1] | Related material changes [1] | angle of repose [2] | clarity of solution (Clarity of solution) |
| --- | --- | --- | --- | --- | --- | --- | --- | --- |
| NC(=O)CN1C[C@H](O)CC1=O [(R)-4-hydroxy-2-oxo-1-pyrrolidineacetamide] | less than 0.15% | tiny | ≥ 100 mg/mL |  |  |  |  |  |
| NC(=O)CN1C[C@H](O)CC1=O [Example 1, (R)-4-hydroxy-2-oxo-1-pyrrolidineacetamide] |  |  |  | 0.23% | 0.35% | 0.12% | 28 ° | clarification |
| NC(=O)CN1C[C@H](O)CC1=O [Example 3, (R)-4-hydroxy-2-oxo-1-pyrrolidineacetamide] |  |  |  | 0.22% | 0.36% | 0.14% | 28.3 ° | clarification |
| NC(=O)CN1C[C@H](O)CC1=O [Example 4, (R)-4-hydroxy-2-oxo-1-pyrrolidineacetamide] |  |  |  | 0.26% | 0.39% | 0.13% | 28.5 ° | clarification |
| NC(=O)CN1C[C@H](O)CC1=O [Example 5, (R)-4-hydroxy-2-oxo-1-pyrrolidineacetamide] |  |  |  | 0.25% | 0.37% | 0.12% | 27.8 ° | clarification |
| NC(=O)CN1C[C@H](O)CC1=O [Example 6, (R)-4-hydroxy-2-oxo-1-pyrrolidineacetamide] |  |  |  | 0.26% | 0.37% | 0.11% | 27.8 ° | clarification |
| NC(=O)CN1C[C@H](O)CC1=O [Example 7, (R)-4-hydroxy-2-oxo-1-pyrrolidineacetamide] |  |  |  | 0.22% | 0.33% | 0.11% | 28 ° | clarification |

Reference: patent publication US10961192B2, “(R)-4-hydroxy-2-oxo-1-pyrrolidineacetamide crystal form, preparation method therefor, and application thereof” (CHONGQING RUZER PHARMACEUTICAL COMPANY LIMITED, priority 2017, dated 2021)
